Here are results for 36 molecules from patent US20240327393A1 (SIRONAX LTD., priority 2021, published 2024).

By EC50 is commonly meant the midpoint of the concentration-response curve.

This assay relates to HT-1080 (ATCC, CCL-121) cells. In words: HT-1080 cell viability assay with ferroptosis inducer RSL3 (Cell Titer-Glo). The format is cell-based. The conditions noted are these: Homo sapiens, HT-1080 cells treated with RSL3, 3-fold, 10-point dilution, 1.1 μM highest concentration, read-out: EC50 (nM), ferroptosis inhibitory activity. In short, it runs like this:
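HT-1080 cells (6000 per well) were cultured overnight at 37 °C, then co-treated with RSL3 and compound in a 3-fold, 10-point series topping at 1.1 μM. Viability was read by CellTiter-Glo luminescence and normalized to untreated controls. EC50 came from a sigmoidal non-linear regression fit.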
On the technique in general: In ATP-based viability assays light output follows the ATP content of the culture.

Like-named read-outs stand apart in the source and are kept apart here.

On to `Cc1cc(N2CCC(C(F)(F)F)C2)ccc1Nc1ccc2c(c1)OCC(=O)N2` (stereo not drawn) [Compound 587, 7-((2-methyl-4-(3-(trifluoromethyl)pyrrolidin-1-yl)phenyl)amino)-2H-benzo[b][1,4]oxazin-3(4H)-one], for which the EC50 (Table 3) was in the range of 0.1 to 100 nM.

On to `Cc1cc(N2CCC(C(F)(F)F)CC2)ccc1Nc1ccc2c(c1)NC(=O)C2(C)C` [Compound 527, 3,3-dimethyl-6-((2-methyl-4-(4-(trifluoromethyl)piperidin-1-yl)phenyl)amino)indolin-2-one], for which the EC50 (Table 3) was 0.1 to 100 nM.

For the molecule `CN1C(=O)C(C)(C)c2ccc(Nc3ccc(N4CCC(C(F)(F)F)CC4)cc3)cc21` [Compound 335, 1,3,3-trimethyl-6-((4-(4-(trifluoromethyl)piperidin-1-yl)phenyl)amino) indolin-2-one], the EC50 (Table 2) was 0.1 to 100 nM.

`Cn1c(=O)n(C)c2cc(Nc3ccc(CN4CCCC4)cc3)ccc21` [Compound 295, 1,3-dimethyl-5-((4-(pyrrolidin-1-ylmethyl)phenyl)amino)-1,3-dihydro-2H-benzo[d]imidazol-2-one]: the EC50 (Table 2) was 1000 to 10000 nM.

On to `Cc1c(Nc2ccc3c(c2)OCC(=O)N3)ccc(N2CCC(C(F)(F)F)CC2)c1C#N` [Compound 537, 2-methyl-3-((3-oxo-3,4-dihydro-2H-benzo[b][1,4]oxazin-7-yl)amino)-6-(4-(trifluoromethyl)piperidin-1-yl)benzonitrile], for which, for the setting “Table 3”, the EC50 lay within 0.1 to 100 nM.

On to `CC1CN(c2ccc(Nc3ccc4c(c3)OCC(=O)N4)cc2)CC(C(F)(F)F)O1` (stereo not drawn) [Compound 561, 7-((4-(2-methyl-6-(trifluoromethyl)morpholino)phenyl)amino)-2H-benzo[b][1,4]oxazin-3(4H)-one], for which the EC50 (Table 3) was 0.1 to 100 nM.

As for `Cc1cc(N2CCC(OC(F)(F)F)C2)ccc1Nc1ccc2c(c1)OCCC(=O)N2` (stereo not drawn) [Compound 591, 8-((2-methyl-4-(3-(trifluoromethoxy)pyrrolidin-1-yl)phenyl)amino)-2,3-dihydrobenzo[b][1,4]oxazepin-4(5H)-one], the EC50 (Table 3) lay within 0.1 to 100 nM.

Turning to `Cc1nc(N2CC(C)OC(C)C2)ccc1Nc1ccc2c(c1)OCC(=O)N2C` (stereo not drawn) [Compound 69, 7-((6-(2,6-dimethylmorpholino)-2-methylpyridin-3-yl)amino)-4-methyl-2H-benzo[b][1,4]oxazin-3(4H)-one], the EC50 (Table 2) lay within 0.1 to 100 nM.

As to `Cc1cc(N2CCC(C(F)(F)F)CC2)ccc1Nc1ccc2[nH]cc(C(N)=O)c2c1` [Compound 571, 5-((2-methyl-4-(4-(trifluoromethyl)piperidin-1-yl)phenyl)amino)-1H-indole-3-carboxamide], the EC50 (Table 3) lay in the range of 0.1 to 100 nM.

On to `CC1CCN(c2ccc(Nc3ccc4c(c3)CN(C)C4=N)cc2)CC1` [Compound 294, 1-imino-2-methyl-N-(4-(4-methylpiperidin-1-yl)phenyl)isoindolin-5-amine], for which the EC50 (Table 2) lay in the range of 0.1 to 100 nM.

With `CC1(C)CCC(c2ccc(Nc3ccc4nc(N)sc4c3)cc2)CC1` [Compound 409, N^6-(4-(4,4-dimethylcyclohexyl)phenyl)benzo[d]thiazole-2,6-diamine], the EC50 (Table 2) is 0.1 to 100 nM.

For `CCN1Cc2ccc(Nc3cnc(N4CCCCC4)c(F)c3)cc2C1` [Compound 195, 2-ethyl-N-(5-fluoro-6-(piperidin-1-yl)pyridin-3-yl)isoindolin-5-amine], the EC50 (Table 2) was 0.1 to 100 nM.

In the case of `O=C1COc2cc(Nc3ccc(N4CCC(C(F)(F)F)CC4)cc3)ccc2N1` [Compound 85, 7-((4-(4-(trifluoromethyl)piperidin-1-yl)phenyl)amino)-2H-benzo[b][1,4]oxazin-3(4H)-one], the EC50 (Table 2) was 0.1 to 100 nM.

`NC(=O)n1ncc2cc(Nc3ccc(N4CCC(C(F)(F)F)CC4)cc3)ccc21` [Compound 398, 5-((4-(4-(trifluoromethyl)piperidin-1-yl)phenyl)amino)-1H-indazole-1-carboxamide]: the concentration giving a half-maximal response (EC50) (Table 2) fell in the range of 0.1 to 100 nM.

Take `COc1cc(Nc2ccc3c(c2)n(C)c(=O)n3C)ccc1N1CCC(C(F)(F)F)CC1` [Compound 269, 5-((3-methoxy-4-(4-(trifluoromethyl)piperidin-1-yl)phenyl)amino)-1,3-dimethyl-1,3-dihydro-2H-benzo[d]imidazol-2-one]: the EC50 (Table 2) is 0.1 to 100 nM.

For `Cc1nc(N2CCN(CC(F)(F)F)CC2)ccc1Nc1ccc2c(c1)OCC(=O)N2` [Compound 521, 7-((2-methyl-6-(4-(2,2,2-trifluoroethyl)piperazin-1-yl)pyridin-3-yl)amino)-2H-benzo[b][1,4]oxazin-3(4H)-one], the EC50 (Table 3) lay within 0.1 to 100 nM.

`CC1CN(c2ccc(Nc3ccc4c(c3)C(C)(C)C(=O)N4C)cc2)CC(C)O1` (stereo not drawn) [Compound 428, 5-((4-(2,6-dimethylmorpholino)phenyl)amino)-1,3,3-trimethylindolin-2-one]: the EC50 (Table 2) was 0.1 to 100 nM.

`Cn1[nH]c2cc(Nc3ccc(N4CCCCC4)cc3)ccc2c1=O` [Compound 257, 2-methyl-6-((4-(piperidin-1-yl)phenyl)amino)-1,2-dihydro-3H-indazol-3-one]: the EC50 (Table 2) was 0.1 to 100 nM.

On to `COc1cc(Nc2ccc3c(c2)n(C)c(=O)n3C)cnc1N1CCC(C(F)(F)F)CC1` [Compound 372, 5-((5-methoxy-6-(4-(trifluoromethyl)piperidin-1-yl)pyridin-3-yl)amino)-1,3-dimethyl-1,3-dihydro-2H-benzo[d]imidazol-2-one], for which the EC50 (Table 2) lay within 0.1 to 100 nM.

Consider `Cc1cc(N2CCC(C(F)(F)F)CC2)ncc1Nc1ccc2c(c1)n(C)c(=O)n2C` [Compound 379, 1,3-dimethyl-5-((4-methyl-6-(4-(trifluoromethyl)piperidin-1-yl)pyridin-3-yl)amino)-1,3-dihydro-2H-benzo[d]imidazol-2-one], for which, under “Table 2”, the EC50 fell in the range of 0.1 to 100 nM.

For `O=C1COc2cc(Nc3ccc(N4CCC(C(F)(F)F)CC4)cn3)ccc2N1` [Compound 476], the EC50 (Table 3) lay in the range of 0.1 to 100 nM.

As to `CCCCCN(CC)c1ccc(Nc2ccc3c(c2)OCC(=O)N3C)cc1` [Compound 30, 7-((4-(ethyl(pentyl)amino)phenyl)amino)-4-methyl-2H-benzo[b][1,4]oxazin-3(4H)-one], the EC50 (Table 2) fell in the range of 0.1 to 100 nM.

For `Cc1cc(N2CCC(C)CC2)ccc1Nc1ccc2c(c1)n(C)c(=O)n2C` [Compound 280, 1,3-dimethyl-5-((2-methyl-4-(4-methylpiperidin-1-yl)phenyl)amino)-1,3-dihydro-2H-benzo[d]imidazol-2-one], the EC50 (Table 2) fell in the range of 0.1 to 100 nM.

`COCCn1c(=O)n(C)c2ccc(Nc3ccc(N4CCC(C(F)(F)F)C4)cc3C)cc21` (stereo not drawn) [Compound 620, 3-(2-methoxyethyl)-1-methyl-5-((2-methyl-4-(3-(trifluoromethyl)pyrrolidin-1-yl)phenyl)amino)-1,3-dihydro-2H-benzo[d]imidazol-2-one]: the EC50 (Table 3) is 0.1 to 100 nM.

`Cc1cc(N2CCC(C(F)(F)F)CC2)ccc1Nc1ccc2c(c1)CN(C(N)=O)C2` [Compound 545, 5-((2-methyl-4-(4-(trifluoromethyl)piperidin-1-yl)phenyl)amino) isoindoline-2-carboxamide]: the half-maximal effective concentration (EC50) (Table 3) fell in the range of 0.1 to 100 nM.

In the case of `CN1C(=O)COc2cc(Nc3ccc(N4CC(C)(C)OC(C)(C)C4)cc3)ccc21` [Compound 93, 4-methyl-7-((4-(2,2,6,6-tetramethylmorpholino)phenyl)amino)-2H-benzo[b][1,4]oxazin-3(4H)-one], under “Table 2”, the EC50 is 0.1 to 100 nM.

On to `CNCCCN1C(=O)COc2cc(Nc3ccc(N4CCC(C(F)(F)F)CC4)cc3)ccc21` [Compound 41, 4-(3-(methylamino)propyl)-7-((4-(4-(trifluoromethyl)piperidin-1-yl)phenyl)amino)-2H-benzo[b][1,4]oxazin-3(4H)-one], for which the EC50 (Table 2) lay in the range of 0.1 to 100 nM.

In the case of `Cc1cc2c(cc1Nc1ccc(N3CCC(C(F)(F)F)CC3)cc1)OCC(=O)N2C` [Compound 157], the EC50 (Table 2) was 0.1 to 100 nM.

As to `COC1CN(c2ccc(Nc3ccc4c(c3)OCC(=O)N4)c(C)c2)C1` [Compound 578, 7-((4-(3-methoxyazetidin-1-yl)-2-methylphenyl)amino)-2H-benzo[b][1,4]oxazin-3(4H)-one], the EC50 (Table 3) was in the range of 0.1 to 100 nM.

On to `Cn1c(=O)oc2ccc(Nc3ccc(N4CCC(C(F)(F)F)CC4)cc3)cc21` [Compound 349, 3-methyl-5-((4-(4-(trifluoromethyl)piperidin-1-yl)phenyl)amino)benzo[d]oxazol-2(3)-one], for which, for the setting “Table 2”, the EC50 lay in the range of 0.1 to 100 nM.

As to `COCCOc1ccc(Nc2ccc3c(c2)n(C)c(=O)n3C)cc1` [Compound 318, 5-((4-(2-methoxyethoxy)phenyl)amino)-1,3-dimethyl-1,3-dihydro-2H-benzo[d] imidazol-2-one], the EC50 (Table 2) is 0.1 to 100 nM.

`CN1CCC(N2Cc3cc(Nc4ccc(N5CCC(C(F)(F)F)CC5)cc4)ccc3C2=O)CC1` [Compound 208, 2-(1-methylpiperidin-4-yl)-5-((4-(4-(trifluoromethyl)piperidin-1-yl)phenyl)amino)isoindolin-1-one]: the EC50 (Table 2) was 0.1 to 100 nM.

For the molecule `CNCCN1C(=O)COc2cc(Nc3ccc(C4CC(C)OC(C)C4)cc3)ccc21` (stereo not drawn) [Compound 54, 7-((4-(2,6-dimethyltetrahydro-2H-pyran-4-yl)phenyl)amino)-4-(2-(methylamino)ethyl)-2H-benzo[b][1,4]oxazin-3(4H)-one], where the note is “Table 2”, the EC50 lay within 0.1 to 100 nM.

Turning to `Cn1c(=O)[nH]c2cc(Nc3ccc(N4CCC(C(F)(F)F)CC4)cc3)ccc21` [Compound 363, 1-methyl-5-((4-(4-(trifluoromethyl)piperidin-1-yl)phenyl)amino)-1,3-dihydro-2H-benzo[d]imidazol-2-one], the EC50 (Table 2) was 0.1 to 100 nM.

As for `Cn1cc(C(N)=O)c2cc(Nc3ccc(N4CCC(C(F)(F)F)CC4)cc3)ccc21` [Compound 383, 1-methyl-5-((4-(4-(trifluoromethyl)piperidin-1-yl)phenyl)amino)-1H-indole-3-carboxamide], the EC50 (Table 2) fell in the range of 0.1 to 100 nM.

Turning to `CC(=O)N1Cc2ccc(Nc3ccc(N4CCC(C(F)(F)F)CC4)cc3)cc2C1` [Compound 186, 1-(5-((4-(4-(trifluoromethyl)piperidin-1-yl)phenyl)amino)isoindolin-2-yl) ethan-1-one], the EC50 (Table 2) is 0.1 to 100 nM.
